What all share (assay): biochemical
For assay [1], the target named is D(2) dopamine receptor (Homo sapiens, UniProt P14416).
For assay [2], the target named is T1, D(4) dopamine receptor (Rattus norvegicus, UniProt P30729).
T1 sequence (P30729 whole entry): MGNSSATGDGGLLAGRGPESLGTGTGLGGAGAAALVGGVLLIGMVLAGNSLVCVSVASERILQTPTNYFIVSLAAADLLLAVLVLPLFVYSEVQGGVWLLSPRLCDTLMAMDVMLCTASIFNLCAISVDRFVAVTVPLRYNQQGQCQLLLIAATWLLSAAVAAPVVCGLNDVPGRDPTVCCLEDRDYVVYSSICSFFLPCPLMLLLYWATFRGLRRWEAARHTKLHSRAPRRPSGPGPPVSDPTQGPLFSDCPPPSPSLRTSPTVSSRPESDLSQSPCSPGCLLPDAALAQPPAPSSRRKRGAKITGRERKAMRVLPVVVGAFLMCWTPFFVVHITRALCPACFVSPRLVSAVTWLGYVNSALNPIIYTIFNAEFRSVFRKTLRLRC

The target in assay [3] is Sodium-dependent serotonin transporter (Homo sapiens, UniProt P31645).
Assay [4] deals with T2, 5-hydroxytryptamine receptor 2C (Rattus norvegicus, UniProt P08909).
T2 sequence (P08909 whole entry): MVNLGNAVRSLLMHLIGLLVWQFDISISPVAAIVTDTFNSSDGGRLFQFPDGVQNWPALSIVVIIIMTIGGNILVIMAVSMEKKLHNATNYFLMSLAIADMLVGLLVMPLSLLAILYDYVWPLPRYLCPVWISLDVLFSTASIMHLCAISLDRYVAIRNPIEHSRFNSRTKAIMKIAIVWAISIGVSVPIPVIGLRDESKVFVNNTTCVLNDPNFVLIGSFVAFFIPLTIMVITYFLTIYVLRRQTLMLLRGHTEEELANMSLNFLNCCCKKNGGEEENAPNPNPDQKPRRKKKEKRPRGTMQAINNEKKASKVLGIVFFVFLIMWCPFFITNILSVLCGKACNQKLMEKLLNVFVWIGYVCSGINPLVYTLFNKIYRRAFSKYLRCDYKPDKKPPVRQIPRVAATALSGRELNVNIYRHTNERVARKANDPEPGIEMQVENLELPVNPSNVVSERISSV

The values below come from ChEMBL document CHEMBL3817758, “Design and synthesis of dual 5-HT1A and 5-HT7 receptor ligands” (Bioorg Med Chem, 2016).

Molecules are shown by their SMILES.

D(2) dopamine receptor, sequence (P14416 whole entry): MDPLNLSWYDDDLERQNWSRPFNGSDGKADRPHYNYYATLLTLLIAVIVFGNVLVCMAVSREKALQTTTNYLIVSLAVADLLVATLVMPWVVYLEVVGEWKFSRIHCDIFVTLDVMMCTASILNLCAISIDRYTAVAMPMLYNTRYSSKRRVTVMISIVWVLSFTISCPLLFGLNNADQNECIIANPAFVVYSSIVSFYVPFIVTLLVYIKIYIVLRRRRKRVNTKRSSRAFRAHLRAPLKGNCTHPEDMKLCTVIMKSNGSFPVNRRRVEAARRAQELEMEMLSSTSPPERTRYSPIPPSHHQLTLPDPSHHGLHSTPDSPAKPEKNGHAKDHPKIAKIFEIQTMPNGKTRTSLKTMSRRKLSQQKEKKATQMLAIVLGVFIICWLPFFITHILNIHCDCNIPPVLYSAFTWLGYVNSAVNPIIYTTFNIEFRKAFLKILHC
Sodium-dependent serotonin transporter, sequence (P31645 whole entry): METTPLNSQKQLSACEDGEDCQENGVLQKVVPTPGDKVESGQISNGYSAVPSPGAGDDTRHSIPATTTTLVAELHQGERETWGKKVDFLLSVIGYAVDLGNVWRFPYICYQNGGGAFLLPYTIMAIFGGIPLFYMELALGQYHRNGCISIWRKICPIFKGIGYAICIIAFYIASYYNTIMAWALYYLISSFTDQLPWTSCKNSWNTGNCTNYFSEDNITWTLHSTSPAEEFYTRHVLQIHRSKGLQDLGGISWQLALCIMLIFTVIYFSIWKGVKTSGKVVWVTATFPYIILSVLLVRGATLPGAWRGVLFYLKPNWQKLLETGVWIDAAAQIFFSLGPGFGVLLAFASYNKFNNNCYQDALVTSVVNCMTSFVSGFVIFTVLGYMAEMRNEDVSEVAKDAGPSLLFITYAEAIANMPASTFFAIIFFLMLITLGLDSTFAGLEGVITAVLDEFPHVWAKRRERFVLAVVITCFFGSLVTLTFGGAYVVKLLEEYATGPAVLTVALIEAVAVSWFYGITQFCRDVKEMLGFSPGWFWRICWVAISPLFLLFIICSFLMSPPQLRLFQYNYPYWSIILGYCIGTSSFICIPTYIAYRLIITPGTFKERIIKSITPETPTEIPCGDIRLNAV

As a reminder, the Ki is the equilibrium dissociation constant of an inhibitor or competing ligand from its target. Higher therefore signals a looser hold on the target. With `O=C1c2ccccc2C(=O)N1CCCCN1CCC2CCCCC2C1` (stereo not given), the Ki in assay [1], in assay [2] and in assay [3] was over 10000 nM each time.

In assay [4], `COc1ccc(C(=O)CCCN2CCc3ccccc3C2)cc1` gave a Ki of 1400 nM.

Turning to `NC(=O)c1ccc(C(=O)CCCN2CCc3ccccc3C2)cc1`, in assay [4], the inhibition constant Ki turned out to be 1890 nM.
